The values below come from patent publication US11795196B2, “Mitochondria-targeting peptides” (Stealth BioTherapeutics Corp., priority 2017, dated 2023).

Assay [1] relates to rat. Description: Rat Acute Kidney Injury (AKI) Model, renal ischemia-reperfusion. In kind it is in vivo. More on the design: concentration or dose not given beside the values. To be noted: 30 minutes renal artery occlusion of both kidneys, 24 hours after reperfusion, relative to vehicle. As for the experimental part: The Rat Acute Kidney Injury (AKI) Model was performed by IPST Therapeutique Inc, Sherbrooke, Quebec, Canada. The animals were randomized in terms of even distribution between treatment groups based on their body weight by the Study Director with the aim of scheduling animal from each group at each day of surgery. The rats will be given free access to food and water. Experimental Procedures Induction of Ischemia-Reperfusion • 1. Rats will be anaesthetized with isoflurane USP (Abbot Laboratories, Montreal Canada) 2% in oxygen and placed on a heated pad to maintain body temperature. The ECG and oxygen saturation will be monitored for the entire surgical process. The body temperature will be monitored with a probe thermometer introduced into the abdomen, very close to the kidneys. • 2. A 1 mL blood draw will be taken from the jugular vein. The blood will be collected into lithium heparin tubes and centrifuged at 3000 rpm for 10 min. to obtain the plasma. The plasma will be separated into 200 μL aliquot and stored at −20° C. until dosage of biomarkers. • 3. The abdomen will be disinfected with providone iodine and alaparotomy will be performed. • 4. The kidneys will be exposed and a temporary suture will be placed around renal artery of the two kidneys. Renal ischemia will be visually confirmed by a gradual changed of the kidneys colour going from red to dark purple within a couple of minutes following the start of the ischemia. During the ischemia, the kidneys will be kept moist and warm using a heat lamp and sterile gauze soaked in warm (37° C.) saline. The temperature will be monitored with a probe thermometer introduced into the abdomen, very close to the kidneys. • 5. After 30 minutes of occlusion, the suture will be removed. • 6. The abdominal wounds will be closed with 4-0 silk suture, and the animal will be return to its cage. • 7. Twenty-four hours after reperfusion the rats will be re-anesthetized. A second blood draw will be taken as was done before the ischemia. • 8. Sham will be treated under same conditions as vehicle, except, kidneys will not be subjected to ischemic conditions. Detection of Biomarkers A 200 μL aliquot of plasma sample will be taken before the ischemia and 24 hours following the ischemia; both will be sent to the clinical laboratory of the CHUS (Centre Hospitalier Universitaire de Sherbrooke, Quebec, Canada) for detection of plasma level of creatinine (p.Cr) and Blood Urea Nitrogen (BUN). Computer Systems The following are the validated computer systems to be used during the conduct of this study. The analysis software will be Microsoft Office Excel 2007 installed on networked personal computers running Microsoft Windows8, XP Professional or Vista. Data Analysis Values are presented as means±SEM (standard error of the means) and presented by the symbol+on the graph. Repeat un-paired Student's t-tests were performed in Microsoft Excel 2007 on all experimental data. Differences were considered significant when p≤ 0.05. The vehicle group was compared to the sham group while the test article was compared to the vehicle group. The plasma creatinine post-UR (% mean of vehicle) was calculated using the following formula:
[formula] Where: p.Cr=Plasma creatinine Mean Δ plasma creatinine in sham group=Mean (plasma creatinine 24 h post-isch.−plasma creatinine pre-isch.) in sham group Mean Δ plasma creatinine in vehicle group=Mean ((plasma creatinine 24 h post-inch.−plasma creatinine pre-isch.)−Mean Δ plasma creatinine in sham group) in vehicle group The BUN post-I/R (% mean of vehicle) was calculated using the following formula:
[formula] […]

Assay [2] has as its system rat. Description: Rat Myocardial Infarction Model. In kind it is in vivo. As to conditions: s.c. 2×2 mg/kg, 30 min before ischemia and 5 min before reperfusion, 30 min LAD occlusion, 24 hours post-reperfusion, n=8. As for the experimental part:
The Rat Myocardial Infarction Model was performed by IPST Therapeutique Inc, Sherbrooke, Quebec, Canada. The animals were randomized in terms of even distribution between treatment groups based on their body weight by the Study Director with the aim of scheduling animal from each treatment group for each day of surgery (when possible). • 1) Sham group: size of the group: n=2. Route of administration: n/a; • 2) Vehicle group: size of the group: n=8. Route of administration: s.c.; • 3) Testing article group: size of the group: n=8. Route of administration: s.c.; Treatment dose: 2×2 mg/kg, 30 min before ischemia and 5 min before reperfusion. Experimental Procedures Study Design • 1) On the day of the surgery, the rat will be anaesthetized with a mixture of 2 to 2.5%. isoflurane USP (Abbot Laboratories, Montreal Canada) in oxygen, and placed on a heating pad to maintain body temperature. • 2) The animal will be intubated and immediately ventilated by means of a positive-pressure rodent respirator set at 10 mL/kg bodyweight at a frequency of 65-70 strokes/min. • 3) A baseline blood sample (1 mL) will be taken from the jugular vein for baseline biomarkers quantification. The blood will be collected in lithium heparin microtainers and centrifuged at 3000 rpm, at 4±2° C. for 10 minutes. The plasma will be aliquoted in 2 samples of equal volume (approximately 250 μL). […] A 1 mL blood sample will be taken from the jugular vein, for 24 hrs biomarkers quantification. • 11) The heart will be excised and mounted into a Langendorff apparatus. […]

Another assay concerns isolated rat hearts. Description: Ischemia-reperfusion injury, Langendorff isolated heart preparation. As to conditions: 30 min LAD occlusion + 120 min reperfusion, compound 1 μM in perfusion solution, mean; for White Necrotic Area, % of area at risk: only white necrotic tissue.

Take `Cc1cc(O)cc(C)c1C[C@H](NC(=O)[C@H](N)CCCNC(=N)N)C(=O)N[C@@H](CCCCN)c1nc(Cc2ccc(C(C)(C)C)cc2)no1` [Example 33, (R)-2-amino-N-((S)-1-(((S)-5-amino-1-(3-(4-(tert-butyl)benzyl)-1,2,4-oxadiazol-5 yl)pentyl)amino)-3-(4-hydroxy-2,6-dimethylphenyl)-1-oxopropan-2-yl)-5-guanidinopentanamide]: in the assay with rat [1], the “BUN, % Protection, Mean” value came out at 35.9% and the “Plasma Creatinine, % Protection, Mean” value was found to be 38.9%.

Consider `Cc1cc(O)cc(C)c1C[C@H](NC(=O)[C@H](N)CCCNC(=N)N)C(=O)N[C@@H](CCCCN)c1nc(CC23CC4CC(CC(C4)C2)C3)no1` [Example 37, (R)-N-((S)-1-(((S)-1-(3-(adamantan-1-ylmethyl)-1,2,4-oxadiazol-5-yl)-5-aminopentyl)amino)-3-(4-hydroxy-2,6-dimethylphenyl)-1-oxopropan-2-yl)-2-amino-5-guanidinopentanamide], for which, in the assay with rat [1], the “BUN, % Protection, Mean” value was 44.3% and the “Plasma Creatinine, % Protection, Mean” value came out at 30.7%. Also, the “Infarct size (%), Mean” value in the assay with rat [2] worked out at 29.2%.

As to `Cc1cc(O)cc(C)c1C[C@H](NC(=O)[C@H](N)CCCNC(=N)N)C(=O)N[C@@H](CCCCN)c1nc(C23CC4CC(CC(C4)C2)C3)no1` [Example 38, D-Arg-DMT-NH((S)-1-(3-(adamantan-1-yl)-1,2,4-oxadiazol-5-yl)-5-aminopent-1-yl)], the “Infarct size (%), Mean” value in the assay on rat [2] is 30.6%. Also, in the assay on isolated rat hearts, the “Infarct size, % of area at risk” value is 31% and the “White Necrotic Area, % of area at risk” value is reported as 15%.

As to `Cc1cc(O)cc(C)c1C[C@H](NC(=O)[C@H](N)CCCn1ccnc1N)C(=O)N[C@@H](CCCN)c1nc(CC2CCCCC2)no1` [Example 42, (R)-2-amino-N-((S)-1-(((S)-4-amino-1-(3-(cyclohexylmethyl)-1,2,4-oxadiazol-5 yl)butyl)amino)-3-(4-hydroxy-2,6-dimethylphenyl)-1-oxopropan-2-yl)-5-(2-amino-1H-imidazol-1-yl)pentanamide], in the assay on rat [1], the “BUN, % Protection, Mean” value came to 50.4% and the “Plasma Creatinine, % Protection, Mean” value was 53.4%.

Consider `Cc1cc(O)cc(C)c1C[C@H](NC(=O)[C@H](N)CCCNC(=N)N)C(=O)N[C@@H](Cc1c[nH]cn1)c1nc(CCc2ccccc2)no1` [Example 53, (R)-N-((S)-1-(((S)-2-(1H-imidazol-4-yl)-1-(3 phenethyl-1,2,4-oxadiazol-5 yl)ethyl)amino)-3-(4-hydroxy-2,6-dimethylphenyl)-1-oxopropan-2-yl)-2-amino-5-guanidinopentanamide], for which, in the assay with isolated rat hearts, the “Infarct size, % of area at risk” value was 30% and the “White Necrotic Area, % of area at risk” value stood at 21%.

On to `Cc1cc(O)cc(C)c1C[C@H](NC(=O)[C@H](N)CCNC(=N)N)C(=O)N[C@@H](CCCCN)c1nc(Cc2ccccc2)no1` [Example 64, (R)-2-amino-N-((S)-1-(((S)-5-amino-1-(3-benzyl-1,2,4-oxadiazol-5 yl)pentyl)amino)-3-(4-hydroxy-2,6-dimethylphenyl)-1-oxopropan-2-yl)-4-guanidinobutanamide], for which, in the assay with isolated rat hearts, the “Infarct size, % of area at risk” value is reported as 38% and the “White Necrotic Area, % of area at risk” value is on record as 20%.

With `Cc1cc(O)cc(C)c1C[C@H](NC(=O)[C@H](N)CCCn1ccnc1N)C(=O)N[C@@H](CCCCN)c1nc(CC2CCCCC2)no1` [Example 65, (R)-2-amino-N-((S)-1-(((S)-5-amino-1-(3-(cyclohexylmethyl)-1,2,4-oxadiazol-5 yl)pentyl)amino)-3-(4-hydroxy-2,6-dimethylphenyl)-1-oxopropan-2-yl)-5-(2-amino-1H-imidazol-1-yl)pentanamide], in the assay with isolated rat hearts, the “Infarct size, % of area at risk” value was found to be 24% and the “White Necrotic Area, % of area at risk” value turned out to be 17%.

On to `Cc1cc(O)cc(C)c1C[C@H](NC(=O)[C@H](N)CCNC(=N)N)C(=O)N[C@@H](Cc1c[nH]cn1)c1nc(CC23CC4CC(CC(C4)C2)C3)no1` [Example 68, (R)-N-((S)-1-(((S)-1-(3-(adamantan-1-yl)methyl-1,2,4-oxadiazol-5-yl)-2-(1H-imidazol-4 yl)ethyl)amino)-3-(4-hydroxy-2,6-dimethylphenyl)-1-oxopropan-2-yl)-2-amino-4-guanidinobutanamide], for which, in the assay with isolated rat hearts, the “Infarct size, % of area at risk” value turned out to be 35% and the “White Necrotic Area, % of area at risk” value was found to be 18%.

Consider `Cc1cc(O)cc(C)c1C[C@H](NC(=O)[C@@H](CCN)NC(=N)N)C(=O)N[C@@H](CCCN)c1nc(Cc2ccccc2)no1` [Example 82, (R)-4-amino-N-((S)-1-(((5)-4-amino-1-(3-benzyl-1,2,4-oxadiazol-5-yl)butyl)amino)-3-(4-hydroxy-2,6-dimethylphenyl)-1-oxopropan-2-yl)-2-guanidinobutanamide], for which, in the assay on rat [1], the “BUN, % Protection, Mean” value is reported as 25.5% and the “Plasma Creatinine, % Protection, Mean” value was 32.0%. In addition, in the assay on isolated rat hearts, the “Infarct size, % of area at risk” value worked out at 42% and the “White Necrotic Area, % of area at risk” value is 24%.
